In US12041933B1, “N-(pyrimidin-2-ylcarbamothioyl) benzamide as an eco-friendly insecticidal agent against Spodoptera littoralis (BOISD.)” (KING FAISAL UNIVERSITY, priority 2023, dated 2024):
≈ marks a conversion by molar mass, not a printed value. Read-outs that look alike come from different tables or passages of the source.

Tested on: cotton leafworm, S. littoralis
Experiment: Insecticidal bioassay screening (castor leaf dip), second and fourth instar larvae, laboratory strain
Assay type: in vivo
Conditions: for Toxicity index %: 72 hrs, Diflubenzuron's LC50/compound's LC50 × 100; for LC50: Spodoptera littoralis, foliar
Procedure: Five concentrations (200, 100, 50, 25, 12.5 ppm) were designed for this synthetic compound and the reference Diflubenzuron compound as the dynamic ingredients based on mg/L via diluting the commercial formulation.
In this experiment, castor leaves are immersed in each of the previously prepared concentrations of the components for 10 seconds and then left to dry for 60 minutes. Larvae of the second and fourth instars of each checked strain are prepared with treated leaves in gauze-covered glass containers for 72 hrs. An untreated control is made in which leaves are dipped in triton x-100 and distilled water only. Then the preserved leaves were removed & fresh, untreated leaves were provided for 72 hours. Three replicates (10 larvae each) were checked for each concentration. Daily inspection was carried out for all treatments and mortality percentages were recorded 3 days (72 hours) after treatment. The average mortality percentage was corrected employing Abbott's formula. The corrected mortality rate for each of the previously synthesized compounds is statistically calculated according to Finney (1970). Through this rate, the corresponding concentration test lines (LDP lines) are assessed.

[1] = 72 h, read-out: LC50 (mg/L) at 95%, 2nd instar larvae, after 72 hrs of treatment
[2] = 72 h, read-out: LC50 (mg/L) at 95%, 4th instar larvae, after 72 hrs of treatment
[3] = against Spodoptera littoralis under laboratory conditions, instar not stated

| Compound | Toxicity index % (2nd instar larvae) | Toxicity index % (4th instar larvae) | LC50 [1] | LC50 [2] | LC50 [3] | LC50 (72 h, 4th instars of larvae, after 72 hours of treatment) |
| --- | --- | --- | --- | --- | --- | --- |
| O=C(NC(=O)c1c(F)cccc1F)Nc1ccc(Cl)cc1 [Diflubenzuron, reference compound] | 100% | 100% | 45.2 mg/L (≈ 145 µM) | 144 mg/L (≈ 464 µM) | 45.2 mg/L (≈ 145 µM) |  |
| O=C(NC(=S)Nc1ncccn1)c1ccccc1 [Compound 3, N-(Pyrimidin-2-ylcarbamothioyl) benzamide] | 16.7% | 22.8% | ~96.8 mg/L (≈ 375 µM) | 631 mg/L (≈ 2440 µM) | 96.8 mg/L (≈ 375 µM) | ~631 mg/L (≈ 2440 µM) |
